Read-outs that look alike come from different tables or passages of the source.

Common to all, as to test: Competitive fluorescence titration of all-trans retinol with 11-cis retinaldehyde
Assay type in all cases: binding

For one test, the target named is T1, full-length Xenopus IRBP (Xenopus laevis, UniProt Q7SZI7).
T1 construct: We expressed the full-length IRBP as well as its individual modules as thioredoxin-fusion proteins using pTrxFus and pThioHis vectors; made in house; host or cells: E. coli Top10 (pThioHis)
From the text:
In Figure 8B, full-length Xenopus IRBP was titrated with all-trans retinol in the presence of different fixed concentrations of 11-cis retinaldehyde. Binding of all-trans retinol to Xenopus IRBP was followed by monitoring the enhancement of its fluorescence. […] Equation 3 (see methods) was used to analyze the data generating the 3-dimensional representation of the fit shown graphically in Figure 8B.
(§1) To describe the displacement of all-trans retinol by 11-cis retinaldehyde, Equation 1 was modified to take into account the competition between the two ligands. The apparent dissociation constants for all-trans retinol measured under these conditions is related to the dissociation constant of 11-cis retinaldehyde through the following expression.
(§2) Kapp=Kdall−trans[1+Rt11−cis/Kd11−cis] MathType@MTEF@5@5@+=feaafiart1ev1aaatCvAUfKttLearuWrP9MDH5MBPbIqV92AaeXatLxBI9gBaebbnrfifHhDYfgasaacH8akY=wiFfYdH8Gipec8Eeeu0xXdbba9frFj0=OqFfea0dXdd9vqai=hGuQ8kuc9pgc9s8qqaq=dirpe0xb9q8qiLsFr0=vr0=vr0dc8meaabaqaciaacaGaaeqabaqabeGadaaakeaacqWGlbWsdaWgaaWcbaGaemyyaeMaemiCaaNaemiCaahabeaakiabg2da9iabdUealnaaDaaaleaacqWGKbazaeaacqWGHbqycqWGSbaBcqWGSbaBcqGHsislcqWG0baDcqWGYbGCcqWGHbqycqWGUbGBcqWGZbWCaaGcdaWadaqaaiabigdaXiabgUcaRmaalaaabaGaemOuai1aa0baaSqaaiabdsha0bqaaiabigdaXiabigdaXiabgkHiTiabdogaJjabdMgaPjabdohaZbaaaOqaaiabdUealnaaDaaaleaacqWGKbazaeaacqaIXaqmcqaIXaqmcqGHsislcqWGJbWycqWGPbqAcqWGZbWCaaaaaaGccaGLBbGaayzxaaaaaa@58DE@
(§3) The origin of the above expression is discussed in reviews dealing with competition assays. Substitution of equation 2 into equation 1 yields the following expression.
Fenh=C1+C2[Rtall−trans−(Rtall−trans+NPt+Kdall−trans+Kdall−transRt11−cis/Kd11−cis)^2−4NPtRtall−trans] […]

The target in a further test is Xenopus IRBP Module 1 (Xenopus laevis, UniProt Q7SZI7). Particulars: protein 0.99 μM. As to the method: (§4) Figure 9 Competitive inhibition by 11-cis retinaldehyde of all-trans retinol binding to the individual modules of Xenopus IRBP. Binding of all-trans retinol to the individual modules was measured by fluorescence enhancement in the presence of varying amounts of 11-cis retinal. Panels A through D correspond to modules 1 through 4 respectively. […] Three dimensional nonlinear regression was used to determine the number of binding sites, the dissociation constant of all-trans retinol, and the dissociation constant of 11-cis retinal for each of the individual modules. The concentrations of the proteins used in the titrations were as follows: module 1 (0.99 μM; panel A); module 2 (1.10 μM; panel B); module 3 (1.10 μM; panel C); module 4 (1.00 μM; panel D).
as §1, §2, §3
(§5) Fenh=C1+C2[Rtall−trans−(Rtall−trans+NPt+Kdall−trans+Kdall−transRt11−cis/Kd11−cis)^2−4NPtRtall−trans] MathType@MTEF@5@5@+=feaafiart1ev1aaatCvAUfKttLearuWrP9MDH5MBPbIqV92AaeXatLxBI9gBaebbnrfifHhDYfgasaacH8akY=wiFfYdH8Gipec8Eeeu0xXdbba9frFj0=OqFfea0dXdd9vqai=hGuQ8kuc9pgc9s8qqaq=dirpe0xb9q8qiLsFr0=vr0=vr0dc8meaabaqaciaacaGaaeqabaqabeGadaaakeaacqWGgbGrdaWgaaWcbaGaemyzauMaemOBa4MaemiAaGgabeaakiabg2da9iabdoeadnaaBaaaleaacqaIXaqmaeqaaOGaey4kaSIaem4qam0aaSbaaSqaaiabikdaYaqabaGcdaWadaqaaiabdkfasnaaDaaaleaacqWG0baDaeaacqWGHbqycqWGSbaBcqWGSbaBcqGHsislcqWG0baDcqWGYbGCcqWGHbqycqWGUbGBcqWGZbWCaaGccqGHsisldaGcaaqaamaabmaabaGaemOuai1aa0baaSqaaiabdsha0bqaaiabdggaHjabdYgaSjabdYgaSjabgkHiTiabdsha0jabdkhaYjabdggaHjabd6gaUjabdohaZbaakiabgUcaRiabd6eaojabdcfaqnaaBaaaleaacqWG0baDaeqaaOGaey4kaSIaem4saS0aa0baaSqaaiabdsgaKbqaaiabdggaHjabdYgaSjabdYgaSjabgkHiTiabdsha0jabdkhaYjabdggaHjabd6gaUjabdohaZbaakiabgUcaRmaalaaabaGaem4saS0aa0baaSqaaiabdsgaKbqaaiabdggaHjabdYgaSjabdYgaSjabgkHiTiabdsha0jabdkhaYjabdggaHjabd6gaUjabdohaZbaakiabdkfasnaaDaaaleaacqWG0baDaeaacqaIXaqmcqaIXaqmcqGHsislcqWGJbWycqWGPbqAcqWGZbWCaaaakeaacqWGlbWsdaqhaaWcbaGaemizaqgabaGaeGymaeJaeGymaeJaeyOeI0Iaem4yamMaemyAaKMaem4CamhaaaaaaOGaayjkaiaawMcaamaaCaaaleqabaGaeGOmaidaaOGaeyOeI0IaeGinaqJaemOta4Kaemiuaa1aaSbaaSqaaiabdsha0bqabaGccqWGsbGudaqhaaWcbaGaemiDaqhabaGaemyyaeMaemiBaWMaemiBaWMaeyOeI0IaemiDaqNaemOCaiNaemyyaeMaemOBa4Maem4CamhaaaqabaaakiaawUfacaGLDbaaaaa@A768@

The target of another test is T2, Xenopus IRBP Module 2 (Xenopus laevis, UniProt Q7SZI7).
T2 construct: cDNAs corresponding to the full-length IRBP, module 1, and module 2 were expressed in pThioHis; modules 3 and 4 were expressed in pTrxFus; made in house; host or cells: E. coli Top10 (pThioHis)
T2 sequence (Q7SZI7 319-617 limits assumed): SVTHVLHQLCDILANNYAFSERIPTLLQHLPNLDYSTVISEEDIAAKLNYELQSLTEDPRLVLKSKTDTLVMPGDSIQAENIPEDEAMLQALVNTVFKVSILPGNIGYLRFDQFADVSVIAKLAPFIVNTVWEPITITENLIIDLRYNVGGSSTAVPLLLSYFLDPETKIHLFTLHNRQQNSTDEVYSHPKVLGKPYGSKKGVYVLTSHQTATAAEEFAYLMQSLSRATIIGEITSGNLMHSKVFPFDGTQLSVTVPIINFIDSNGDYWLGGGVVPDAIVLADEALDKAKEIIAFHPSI
As to the method:
as §4, §1, §2, §3, §5

The next test concerns the target T3, Xenopus IRBP Module 4 (Xenopus laevis, UniProt Q7SZI7).
T3 construct: cDNAs corresponding to the full-length IRBP, module 1, and module 2 were expressed in pThioHis; modules 3 and 4 were expressed in pTrxFus; made in house; host or cells: E. coli GI724 / GI698 (pTrxFus)
As to conditions: protein 1.00 μM. The protocol: as §4, §1, §2, §3, §5

The mark [1] stands for this setting: competition with all-trans retinol, read-out: Kd 11-cis retinal.
Where [2] appears, read: competition, in presence of 11-cis retinal, read-out: Kd All-trans retinol.

T3 sequence (Q7SZI7 923-1219): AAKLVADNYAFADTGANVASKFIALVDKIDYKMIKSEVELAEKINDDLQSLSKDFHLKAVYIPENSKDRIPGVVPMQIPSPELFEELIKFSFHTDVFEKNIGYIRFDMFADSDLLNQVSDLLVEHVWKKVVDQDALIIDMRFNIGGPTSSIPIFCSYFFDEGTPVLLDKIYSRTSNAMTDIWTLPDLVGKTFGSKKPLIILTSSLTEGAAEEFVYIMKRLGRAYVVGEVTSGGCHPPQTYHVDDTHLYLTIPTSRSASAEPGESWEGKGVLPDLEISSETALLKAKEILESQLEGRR
T1 sequence (Q7SZI7 23-1219): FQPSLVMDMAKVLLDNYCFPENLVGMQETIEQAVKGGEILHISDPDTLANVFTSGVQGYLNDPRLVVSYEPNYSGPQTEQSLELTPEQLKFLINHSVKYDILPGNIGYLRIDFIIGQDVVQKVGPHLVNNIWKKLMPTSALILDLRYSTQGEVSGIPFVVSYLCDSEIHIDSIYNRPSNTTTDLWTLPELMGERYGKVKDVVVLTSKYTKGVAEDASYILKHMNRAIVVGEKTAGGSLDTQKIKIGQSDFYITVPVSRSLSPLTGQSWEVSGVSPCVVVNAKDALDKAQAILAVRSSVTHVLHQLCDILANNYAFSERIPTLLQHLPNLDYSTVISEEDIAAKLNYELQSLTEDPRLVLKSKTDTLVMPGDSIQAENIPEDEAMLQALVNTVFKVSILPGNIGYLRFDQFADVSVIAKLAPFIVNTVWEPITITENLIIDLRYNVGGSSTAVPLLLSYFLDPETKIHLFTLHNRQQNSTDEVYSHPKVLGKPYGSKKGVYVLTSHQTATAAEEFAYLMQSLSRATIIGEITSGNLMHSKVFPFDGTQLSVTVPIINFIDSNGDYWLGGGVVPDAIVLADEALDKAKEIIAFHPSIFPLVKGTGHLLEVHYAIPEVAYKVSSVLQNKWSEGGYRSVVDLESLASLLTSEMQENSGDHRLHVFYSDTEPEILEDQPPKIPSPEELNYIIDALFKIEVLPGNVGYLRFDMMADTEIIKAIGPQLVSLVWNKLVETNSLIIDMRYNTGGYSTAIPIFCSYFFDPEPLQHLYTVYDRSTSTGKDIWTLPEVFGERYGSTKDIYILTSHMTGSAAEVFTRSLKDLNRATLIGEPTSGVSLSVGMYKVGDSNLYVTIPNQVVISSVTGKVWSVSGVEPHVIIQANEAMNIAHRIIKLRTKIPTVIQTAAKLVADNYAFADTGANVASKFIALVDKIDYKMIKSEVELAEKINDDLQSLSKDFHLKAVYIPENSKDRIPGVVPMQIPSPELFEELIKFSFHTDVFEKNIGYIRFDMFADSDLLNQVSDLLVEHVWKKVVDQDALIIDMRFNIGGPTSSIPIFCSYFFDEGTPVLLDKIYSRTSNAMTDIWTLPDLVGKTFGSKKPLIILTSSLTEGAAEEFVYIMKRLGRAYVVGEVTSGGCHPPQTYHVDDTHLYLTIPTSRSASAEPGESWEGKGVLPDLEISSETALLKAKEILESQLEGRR
Xenopus IRBP Module 1, sequence (Q7SZI7 23-318): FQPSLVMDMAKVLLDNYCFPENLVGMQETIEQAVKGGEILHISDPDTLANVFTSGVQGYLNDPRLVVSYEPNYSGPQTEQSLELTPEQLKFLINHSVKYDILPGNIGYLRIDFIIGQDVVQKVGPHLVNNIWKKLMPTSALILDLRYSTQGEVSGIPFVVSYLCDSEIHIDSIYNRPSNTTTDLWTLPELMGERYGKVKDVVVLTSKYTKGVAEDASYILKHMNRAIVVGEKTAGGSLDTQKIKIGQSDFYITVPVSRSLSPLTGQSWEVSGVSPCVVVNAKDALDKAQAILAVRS

In the case of `CC1=C(/C=C/C(C)=C/C=C/C(C)=C/C=O)C(C)(C)CCC1` [11-cis retinal], the Kd turned out to be 210 ± 100 nM at full-length Xenopus IRBP (setting [1]); 570 ± 110 nM on Xenopus IRBP Module 1 (setting [1]); 280 ± 130 nM at Xenopus IRBP Module 2 (competition with all-trans retinol, protein 1.10 μM, read-out: Kd 11-cis retinal); 290 ± 50 nM on Xenopus IRBP Module 4 (setting [1]). The “Binding sites (N)” value is recorded as 3.53 ± 0.19 on full-length Xenopus IRBP (competition, sites assumed shared by all-trans retinol and 11-cis retinal); 1.29 ± 0.24 on Xenopus IRBP Module 1 (competition, shared sites); 1.22 ± 0.10 at Xenopus IRBP Module 2 (competition, shared sites, protein 1.10 μM); 1.47 ± 0.18 at Xenopus IRBP Module 4 (competition, shared sites).

Turning to `CC1=C(/C=C/C(C)=C/C=C/C(C)=C/CO)C(C)(C)CCC1` [all-trans retinol], the Kd at full-length Xenopus IRBP (competition, in presence of fixed concentrations of 11-cis retinaldehyde, read-out: Kd All-trans retinol) was 220 ± 130 nM; at Xenopus IRBP Module 1 (setting [2]) it was 670 ± 170 nM; at Xenopus IRBP Module 2 (competition, in presence of 11-cis retinal, protein 1.10 μM, read-out: Kd All-trans retinol), 74 ± 37 nM; on Xenopus IRBP Module 4 (setting [2]) it was 410 ± 90 nM. On Xenopus IRBP Module 2 (comparison of Kd for all-trans retinol and 11-cis retinaldehyde), the “Ligand selectivity of module 2” value was “selectivity for all-trans retinol over 11-cis retinaldehyde”.

These data come from paper PMC2000878, “Module structure of interphotoreceptor retinoid-binding protein (IRBP) may provide bases for its complex role in the visual cycle – structure/function study of Xenopus IRBP” (BMC Biochemistry, 2007).
